A short description of series [1]: Human Liver Microsomal Stability Test. The series is classed as in vitro ADME. Particulars: human liver microsomes, 1 μM test compound, 37° C.; for micosomal stability Cl: Table 2a. As to the method:
The metabolic degradation for a specific SYK-inhibitor is performed at 37° C. with pooled human liver microsomes (human liver microsomes are commercially available as “BD UltraPool™” by Corning Life Sciences, Fogostraat 12, 1060 LJ Amsterdam, The Netherlands). The final incubation volume of 100 μl per time point contains TRIS buffer pH 7.6 at RT (0.1 M), magnesium chloride (5 mM), microsomal protein (1 mg/ml) and the test compound at a final concentration of 1 μM.
Following a short preincubation period at 37° C., the reaction is initiated by addition of beta-nicotinamide adenine dinucleotide phosphate in its reduced form (NADPH, 1 mM) and terminated by transfering an aliquot into solvent after different time points. Additionally, the NADPH-independent degradation is monitored in incubations without NADPH, terminated at the last time point.
The quenched (terminated) incubations are then pelleted by centrifugation (10000 g, 5 min).
An aliquot of the supernatant is assayed by LC-MS/MS for the remaining amount of parent compound. The half-life (t1/2 INVITRO) is determined by the slope of the semilogarithmic plot of the concentration-time profile.
The intrinsic clearance (CL_[…]) is calculated by considering the amount of protein in the incubation:
CL_[…] [μl/min/mg protein]=(Ln 2/(t1/2 INVITRO [min] * protein content [mg/ml]))*1000
The protein content [mg/ml] was determined with the “Bicinchoninic Acid Kit” of Sigma Aldrich (commercially available).
The upscaled intrinsic Clearance (CL_UP_INT) is calculated by considering the liver weight [g liver/kg body weight] and the microsomal recovery [mg protein/g liver]:
CL_UP_INT [ml/min/kg]=0.001*CL_[…]*liver weight*microsomal recovery • with microsomal recovery=45 mg protein/g liver • with liver weight=25.7 g liver/kg body weight
The percent hepatic blood flow (% Qh) is finally calculated by considering the human liver blood flow Q [ml/min/kg]:
% Qh [%]=((Q*CL_UP_INT)/(Q+CL_UP_INT)/Q)*100 • with liver blood flow (Q)=20.7 ml/min/kg.

A further series deals with T1, Human GSK3beta (Homo sapiens, UniProt P49841).
T1 construct: purchased University Dundee/Scotland (Dr. James Hastie, Dept. of Biochemistry); host or cells: SF21 insect cells
The series is described as follows: GSK 3β Kinase-Test (Z'-LYTE). The class given is biochemical. The procedure: Human GSK3beta (expressed and purified from SF21 cells)is obtained from the University Dundee/Scotland (Dr. James Hastie—Dept. of Biochemistry) in 50 mM Tris (pH7.5); 150 mM NaCl; 0.1 mM EGTA, 270 mM Succrose, 0.1% R-mercaptoethanol, 1 mM benzamidine, 0.2 mM PMSF; sequence see below). The enzyme is diluted to 3.56 μM (168 μg/ml) in enzyme dilution buffer and 6 μl aliquots are stored at −80° C.
The activity of GSK3β kinase protein is measured using the Z′-LYTETM assay technology from Invitrogen (#PV3324).
The assay is performed in 384 black plates from Corning (#3676) in a final volume of 10 μl by adding 5 μl of kinase peptide mix and 2.5 μl of compound dilution. The reaction is started by addition of 2.5 μl of the 4× ATP solution.
Positive controls are reaction mixtures containing no test compound; negative controls (blanks) are reaction mixtures containing no ATP. As a further control, the phosphopeptide solution is added to wells without kinase and without ATP(=100% phosphorylation control). The non inhibited kinase reaction will result in a phosphorylation corresponding to 20%-30% of the phosphorylation control.
The reaction is performed 1 h at room temperature. After 1 h 5 μl of the development solution is added. After a further incubation for 1 h at room temperature 5 μl of the stop reagent is added. Finally the plates are read on a Flex Station II 384 (Molecular Devices).
The output text file is evaluated in an “MS-Excel-VB-Makro” and “Graph Pad Prism”(Version 5) (GraphPad Software Inc.) is used to calculate the results. Data for the inhibition of GSK3beta are reported in M. data for the inhibition of the protease are reported in % CTL.

Series [2] deals with T2, Recombinant human Aurora B (amino acids 1-344), His tag (Homo sapiens, UniProt Q96GD4).
T2 construct: Recombinant human Aurora B (amino acids 1-344, clone number DU1773)
The series is described as follows: Aurora B Kinase Test (ADP Glo luminescence). The class given is biochemical. As to the method:
The activity of the Aurora B kinase protein was determined using the ADP Glo® Luminescence Kinase test (Promega; V9103X).
Serial Dilution is done in 1:10 steps in 100% DMSO.
Then 20 μl Kinase detection mix (Detection Buffer #V913B Promega; Kinase Detection Substrate #V914B Promega) were added and incubated for 40 minutes at room temperature.
(§1) The output file of the reader is a csv file that contains the well number and measured RLU. For data evaluation and calculation, the measurement of the negative control was set as 0% ctrl and the measurement of the positive control was set as 100% ctrl. Based on this values the % value for the measurement of each substance concentration was calculated using an Assay Explorer software (Accelrys). Normally, the % ctrl values calculated are between 0% and 100% values but may also occur outside these limits in individual cases based on variability or compound characteristics. The IC50 values were calculated from the % ctrl values using Assay Explorer software.Calculation: [y=(a−d)/(1+(x/c)̂b)+d], a=low value, d=high value; x=conc M; c=IC50 M; b=hill; y=% ctrl.
On the technique in general: In ADP-Glo the light output rises with the ADP produced.

The next series addresses T3, FLT3 (Homo sapiens, UniProt P36888).
T3 construct: purchased Invitrogen PV3182
T3 sequence (P36888 564-993 limits assumed): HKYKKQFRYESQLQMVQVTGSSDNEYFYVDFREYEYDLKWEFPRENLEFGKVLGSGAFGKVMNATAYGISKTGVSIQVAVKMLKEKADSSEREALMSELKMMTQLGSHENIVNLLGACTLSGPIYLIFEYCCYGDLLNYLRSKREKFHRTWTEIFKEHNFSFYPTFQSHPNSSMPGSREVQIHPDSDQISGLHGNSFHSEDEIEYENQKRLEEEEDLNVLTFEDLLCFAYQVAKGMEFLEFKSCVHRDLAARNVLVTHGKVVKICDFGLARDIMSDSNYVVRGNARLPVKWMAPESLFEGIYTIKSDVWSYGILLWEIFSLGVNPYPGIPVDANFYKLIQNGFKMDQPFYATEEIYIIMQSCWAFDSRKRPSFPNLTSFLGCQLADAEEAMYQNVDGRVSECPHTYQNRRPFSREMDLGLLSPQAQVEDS
The series is described as follows: FLT3 Kinase Test (Z'-LYTE). The class given is biochemical. The procedure:
FLT3 is obtained from Invitrogen in 50 mM Tris (pH7.5); 100 mM NaCl; 0.05 mM EDTA, 0.05% NP-40, 2 mM DTT; 50% Glycerol #PV3182; Lot 286671; sequence see below). The enzyme is diluted to 720 nM (35 μg/ml) in enzyme dilution buffer and 10 μl aliquots are stored at −80° C.
The activity of FLT3 is measured using the Z′-LYTETM assay technology from Invitrogen (#PV3191)
The assay is performed in 384 black plates from Corning (#3676) in a final volume of 10 μl by adding 5 μl of kinase peptide mix and 2.5 μl of compound dilution. The reaction is started by addition of 2.5 μl of the 4×]ATP solution.
Positive controls are reaction mixtures containing no test compound; negative controls (blanks) are reaction mixtures containing no kinase. As a further control, the phosphopeptide solution is added to wells without kinase(=100% phosphorylation control). The non inhibited kinase reaction will result in a phosphorylation corresponding to 20%-30% of the phosphorylation control.
The reaction is performed for 1 h at room temperature before 5 μl of the development solution is added. After a further incubation for 1 h at room temperature 5 μl of the stop reagent is added. The plates are read on a Flex Station II 384 (Molecular Devices).
The output text file is evaluated in an “MS-Excel-VB-Makro” and “GraphPadPrism”(Version 5) (GraphPad Software Inc.) is used to calculate the results. Data for the inhibition of FLT3 are reported in M. data for the inhibition of the protease are reported in % CTL.

The target in series [3] is T4, Recombinant human Syk (amino acids 342-635), GST fusion (Homo sapiens, UniProt P43405).
T4 construct: Recombinant human Syk (amino acids 342-635); made in house
As to the kind of experiment: Syk Kinase Test (Kinase Glo luminescence). The series is classed as biochemical. As to conditions: Table 1; read-out: SYK-inhibition IC50-value. As to the method:
as §1, with “measured relative light units (RLU).” for “measured RLU.”, “as 100%” for “as 0%”, “as 0%” for “as 100%”, “Explorer software.” for “Explorer software.Calculation: [y=(a−d)/(1+(x/c)̂b)+d], a=low value, d=high value; x=conc M; c=IC50 M; b=hill; y=% ctrl.”
(In general: In Kinase-Glo more light means more ATP remaining.)

The conditions of series [4]: patients with ITP (Podolanczuk et al; Blood (2009)); cited from earlier work.
The mark [5] stands for this setting: Table 2c, compounds of WO 2011/092128, read-out: IC50 (GSK3beta-Inhibition).
Where [6] appears, read: Table 2c, compounds of WO 2011/092128, read-out: IC50 (AURB-Inhibition).
[7] abbreviates: Table 2c, compounds of WO 2011/092128, read-out: IC50 (FLT3-Inhibition).
Setting [8] is: Table 2a, compounds of the invention, read-out: GSK3-beta inhib. IC50-value.
Setting [9] is: Table 1, read-out: AURB-inhibition IC50-value.
The mark [10] stands for this setting: Table 2a, compounds of the invention, read-out: AURB-inhibition IC50-value.
Where [11] appears, read: Table 1, read-out: FLT3-inhibition IC50-value.

Read-outs that look alike come from different tables or passages of the source.

T1 sequence (P49841 whole entry): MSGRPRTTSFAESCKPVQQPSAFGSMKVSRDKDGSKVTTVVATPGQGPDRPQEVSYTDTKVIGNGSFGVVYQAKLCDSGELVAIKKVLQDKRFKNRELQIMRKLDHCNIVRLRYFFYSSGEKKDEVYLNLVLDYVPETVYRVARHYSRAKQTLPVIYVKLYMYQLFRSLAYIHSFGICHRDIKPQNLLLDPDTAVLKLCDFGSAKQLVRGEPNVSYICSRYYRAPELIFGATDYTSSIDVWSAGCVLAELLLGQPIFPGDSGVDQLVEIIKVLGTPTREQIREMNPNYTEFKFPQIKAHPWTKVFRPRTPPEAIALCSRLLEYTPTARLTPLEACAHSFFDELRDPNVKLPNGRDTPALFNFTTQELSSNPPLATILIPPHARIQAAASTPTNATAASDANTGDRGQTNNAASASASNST
T2 sequence (Q96GD4 whole entry, the tested form may be a part): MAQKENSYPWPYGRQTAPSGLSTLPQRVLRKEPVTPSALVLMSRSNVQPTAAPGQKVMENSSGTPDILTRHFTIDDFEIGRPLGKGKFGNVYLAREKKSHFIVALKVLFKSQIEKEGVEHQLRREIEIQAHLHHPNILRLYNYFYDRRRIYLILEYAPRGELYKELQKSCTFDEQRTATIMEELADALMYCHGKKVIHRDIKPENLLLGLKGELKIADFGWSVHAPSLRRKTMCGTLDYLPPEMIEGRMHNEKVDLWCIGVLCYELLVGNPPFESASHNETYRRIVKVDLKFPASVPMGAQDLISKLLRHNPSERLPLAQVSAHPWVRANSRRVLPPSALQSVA

In the case of `C[C@@H](Oc1nc(-c2ccc(C(F)(F)F)nc2)cc2ncccc12)[C@H]1CNC(=O)C1` [Example 3, reference compound], the “microsomal stability Cl” value in series [1] (Table 2c) is listed as 24 % Qh. Besides, the IC50 (commonly the midpoint of a concentration-inhibition curve) at Human GSK3beta (setting [5]) was over 10 µM; in series [2] (setting [6]) it was 1.04 µM; on FLT3 (setting [7]), 1.82 µM.
Take `Cc1nc2cc(-c3cnn(C(C)(C)C)c3)cc(O[C@H](C)[C@H]3CNC(=O)C3)c2[nH]1` [Example 6, (4R)-4-[(1R)-1-[[6-(1-tert-Butylpyrazol-4-yl)-2-methyl-1H-benzimidazol-4-yl]oxy]ethyl]pyrrolidin-2-one]: the “micosomal stability Cl” value in series [1] is under 23 % Qh. For the same compound, the IC50 at Human GSK3beta (setting [8]) was over 10 µM; in series [2] (setting [9]) it was over 50 µM; in series [2] (setting [10]), over 50 µM; on FLT3 (setting [11]), 35.8 µM; in series [3] it was 0.151 µM.
With `Cc1cc2c(O[C@H](C)[C@H]3CNC(=O)C3)cc(-c3cnn(C(C)(C)C)c3)cn2n1` [Example 34, (4R)-4-[(1R)-1-[6-(1-tert-Butylpyrazol-4-yl)-2-methyl-pyrazolo[1,5-a]pyridin-4-yl]oxyethyl]pyrrolidin-2-one], the “micosomal stability Cl” value in series [1] is on record as under 23 % Qh. The IC50 on Human GSK3beta (setting [8]) was over 10 µM; in series [2] (setting [9]), over 50 µM; in series [2] (setting [10]), over 50 µM; on FLT3 (setting [11]) it was 7.93 µM; in series [3], 0.0122 µM.
`C[C@@H](Oc1nc(-c2ccc(N3CCOCC3)nc2)cc2ncccc12)[C@H]1CNC(=O)C1` [Example 45, reference compound]: the “microsomal stability Cl” value in series [1] (Table 2c) stood at 53 % Qh. For the same compound, the results for the 50% inhibitory concentration (IC50) (at Human GSK3beta (setting [5]); in series [2] (setting [6]); on FLT3 (setting [7])) were over 10 µM, 0.086 µM and 0.1 µM, respectively.
Consider `Cc1nc2cc(-c3cnn(C(C)(C)C)c3)nc(O[C@H](C)[C@H]3CNC(=O)C3)n2n1` [Example 84, (4R)-4-[(1R)-1-[[7-(1-tert-Butylpyrazol-4-yl)-2-methyl-[1,2,4]triazolo[1,5-c]pyrimidin-5-yl]oxy]ethyl]pyrrolidin-2-one], for which the “micosomal stability Cl” value in series [1] was under 23 % Qh. Further, the IC50 on Human GSK3beta (setting [8]) is over 10 µM; in series [2] (setting [9]), over 50 µM; in series [2] (setting [10]) it was over 50 µM; at FLT3 (setting [11]) it was over 50 µM; at FLT3 (Table 2a, compounds of the invention, read-out: FLT3-inhibition IC50-value), over 50 µM; in series [3] it was 0.637 µM.
With `Cc1c(-c2cc(O[C@H](C)[C@H]3CNC(=O)C3)c3cccnc3c2)cnn1C` [Example 112], the “microsomal stability Cl” value in series [1] (Table 2b) is listed as under 23 % Qh.
Same read-out and setting: under `CCCn1cc(-c2cc(O[C@H](C)[C@H]3CNC(=O)C3)c3cccnc3c2)cn1` [Example 114] stands 26 % Qh; under `CC(C)n1cc(-c2cc(O[C@H](C)[C@H]3CNC(=O)C3)c3cccnc3c2)cn1` [Example 115], under 23 % Qh.
For the compound `COc1cc(Nc2ncc(F)c(Nc3ccc4c(n3)N(COP(=O)(O)O)C(=O)C(C)(C)O4)n2)cc(OC)c1OC` [R788 (R406)], in series [4], the platelet counts result is listed as “improved platelet counts”.

These data come from patent publication US20170008896A1, “HETEROARYL SYK INHIBITORS” (BOEHRINGER INGELHEIM INTERNATIONAL GMBH, priority 2014, published 2017).
